Test results: paper PMC12596731, “Cys–Lys stapling for unprotected peptides via tunable linkers” (National Science Review, 2025)

Assays:
[1] = test system: chymotrypsin; assay: Proteolysis assay with chymotrypsin; type: in vitro ADME; details: chymotrypsin solution, 500 µL of 500 µM peptide in phosphate buffer pH 7.4 + 10 µL chymotrypsin 100 µg/mL, 37 °C, HPLC integration relative to starting peptide, read-out: peptide degraded under chymotrypsin for 1.5 h
Method: IX. Proteolysis assays.
500 µL of peptide TR-12 (500 µM, 2 µL DMSO was added to help solubilization) in phosphate buffer (pH 7.4) was mixed and incubated with 10 µL of the protease solution (Chymotrypsin – 100 µg/mL) at 37 ℃. At 0, 10, 20 , 40, 60, 90 minutes, aliquots of 50 µL were quenched with 50 µL of 1% TFA solution in MeCN respectively and subjected to HPLC analysis. Peptide concentrations at different time points were quantified by integration of the HPLC trace relative to the starting […]
500 µL of peptide 5o (500 µM, 2 µL DMSO was added to help solubilization) in phosphate buffer (pH 7.4) was mixed and incubated with
Table S2. Proteolytic assays of peptide TR-12 and 5o with chymotrypsin.
Time/Peak area 0 min 10 min 20 min 40 min 60 min 90 min

[2] = test system: human bladder cancer cells; type: cell-based; details: 48 h
Method: XI. Biological Experiments
Cell Counting Kit (CCK-8) was used to evaluate the proliferation inhibition activity of the compounds, and the half inhibitory concentration IC50 value was determined by single-concentration primary screening and multi-concentration.
Fetal Bovine Serum (FBS) 04-001-1acs, Biological industries; PBS phosphate buffer (PB180327), penicillin-streptomycin sulfate double resistant mixture (100× ) […]
Leibovitz's L-15 medium (PM151010), Wuhan Punosai Life Technology Co., LTD.
CCK-8 Kit, Biosharp life sciences; Trypsin-edta Digestive Solution (05200-056), GIBCO; Cellular DMSO (D2650 -100ML), SIGMA; 96-well cell culture plate, Corning Life Sciences (Wujiang) Co., LTD. 25, 75cm2 cell culture bottle, Corning Life Sciences (Wujiang) Co., LTD. Blood cell counting plate, Shanghai Qiujing Biochemical Reagent Instrument Co., LTD. Cisplatin (D8810), Solarbio life sciences;
Instruments and equipment
Super clean workbench (sw-cj-2fd), Sujing Aetna; Microscope (nib -100), Ningbo Yongxin Optical Co., Ltd; Carbon dioxide cell incubator (MCO -18AC), Phcbi; Electric constant temperature water bath pot (HWS -24), Shanghai Yiheng Technology Co., Ltd; Multifunctional microplate reader (Multiskan MK3), Thermo; One ten-thousandth balance (MS105DU), METTLER; Centrifuge (TD4N), ChangshaYingtai Instrument Co., Ltd; Mixer (SCI-VS), Selo Czech Republic, USA.
The samples were dissolved in the cell -grade DMSO after accurately weighing to generate the 10 mM drug solution. The drug solution was further diluted to tenfold detection concentration by cell culture medium.
Standard Operation Procedure
Detection principle of cytotoxicity (CCK -8 method):
The detection principle is that the CCK-8 reagent contains WST-8, which is reduced S52 to a highly water-soluble yellow methyl product (formazan) by dehydrogenase in the cell mitochondria under the action of electron carrier 1-methoxy-5-methylphenazine dimethyl sulfate (1-methoxy PMS). The number of the nail products produced is directly proportional to the number of living cells.
(1) Inoculate cells: The cells were prepared into single cell suspension with the culture medium containing 10% fetal bovine serum, and the 96 well plates were inoculated with 90 uL cell culture medium (Adherent cell viewed 5×10^4/mL and Suspension cell viewed 9×10^4/mL) per well, then cultured at 5% CO2 and 37 ℃ for 24 hours.
(2) Add the sample solution to be tested: Add 10 µL sample solution to each well. One concentration was set for each sample during preliminary screening and three multiple holes were set for each concentration. Eight concentration gradients were set for each sample for IC50 determination and three multiple holes were set for each concentration.
The 96 well plates were cultured at 5% CO2 and 37 ℃ for 48 hours. The experiment was divided into a blank group, control group and drug group.
(3) Color development: The old culture medium and drug solution of adherent cells were sucked out, then 100 µL of CCK-8 solution (diluted ten times with the basic medium) was added and the suspension cells were directly added 10 µL of CCK-8 stock solution. Culture at 37 ℃ with 5% CO2 for 1-4 h (dark operation, real-time observation).
(4) Result detection: The absorbance was measured at 450 nm with an enzyme labeling instrument and the original data and results were recorded.
(5) The toxicity is expressed by cell inhibition, and the calculation formula is as follows:
Cell inhibition (%) = (ODControl-ODDrug) / (ODControl-ODBlank)×100%. The IC50 was calculated by the software graphpad prism 8 (version 8.0.2, from GraphPad SoftwareInc)，and the experimental results are expressed in ± SD.
6) Positive control: Cisplatin.

[3] = Circular dichroism measurement of α-helicity; type: physicochemical; details: 40% TFE/H2O, 0.05 mM peptide, room temperature, path length 1 mm, 180-260 nm, average of at least 3 values
Method: VIII. Circular Dichroism Measurements.[22]
General Procedure for the measurement of CD spectra were mensurated at a wavelength ranging from 180 to 260 nm, with a path length of 1mm and a scanning speed of 200 nm/min at room temperature on the J-1500 (Jasco, Japan) spectropolarimeter. The lyophilized solid linear and staple peptides were dissolved in deionized water (bubbled with nitrogen for 30 minutes) to afford a 1 mM solution. The 1 mM stock solution was diluted with six different solvent systems (H2O, 5%, 10%, 20%, 30%, 40% TFE/H2O) to afford 0.05 mM solutions. The data described is the average of at least 3 values. The mean peptide ellipticity [θ] was calculated using equation (1) and plotted against […]
θ: ellipticity [mdeg], C: peptide molar concentration [M], Np: number of peptide units, l: cell path length [cm].[6]
Figure S20: The CD spectroscopy of 5y was measured in six different solvent systems Through the above data, we obviously saw that the stapled peptide 5y had the best helicity (34.7%) in 40% solution of TFE/H2O, and then we conducted CD test on the active peptide QN-16 before and after stapling.

[4] = Serum stability study in Foetal Bovine Serum; details: 300 µL of 1 mg/mL peptide in deionized water + 300 µL Foetal Bovine Serum, 37 °C, CH3CN precipitation, RP-HPLC peak area of intact peptide
Method: The peptide of interest (300 µ L of 1 mg/mL stock solution in deionized water) was added to 300 µ L of
Foetal Bovine Serum and incubated at 37° C in an incubator. At each time point, an aliquot of 50 µ L was
drawn and an equal volume of ice-chilled CH3CN was added to the aliquot to precipitate serum proteins.
The cloudy mixture was centrifuged at 12,000 rpm for 10 min and then supernatant was removed. The
level of degradation was determined by the integration of the area under the RP-HPLC peak
corresponding to the intact peptide.
Before testing the serum stability, the standard curve (the relationship between concentration and peak
area) was established by RP-HPLC for CP-9 and TR-12 and QN-16 and 5h and 5o and 5w.
shift their retention times later.

Row | metabolised at 1.5 h, 490 µM [1] [%] | IC50 [2] [µM] | Helicity (α-helicity by CD) [3] [%] | time for complete degradation in bovine serum [4] [h] | Compound
1 |  |  | 34.7 |  | Ac-QSQQTFCNLWRLLKQN-NH2 (also: sidechain bridge or staple (positions not given here)) [Peptide 5y, QN-16 stapled with reagent 3m]
2 |  |  | 30.3 |  | Ac-QSQQTFCNLWRLLKQN-NH2 [QN-16]
3 | 90 | 16.2 | 44.7 | ≤ 2 | CC(=O)N[C@H](C(=O)N[C@@H](CO)C(=O)N[C@@H](Cc1ccccc1)C(=O)N[C@@H](CCCCN)C(=O)N[C@@H](CCC(N)=O)C(=O)N[C@@H](Cc1ccc(O)cc1)C(=O)N[C@@H](Cc1c[nH]c2ccccc12)C(=O)N[C@@H](CS)C(=O)N[C@@H](CC(C)C)C(=O)N[C@@H](CC(C)C)C(=O)N[C@@H](CO)C(=O)N[C@@H](CCCNC(=N)N)C(N)=O)[C@@H](C)O [TR-12]

The next lines start with the compound.

Row | Compound | metabolised at 1.5 h, 490 µM [1] [%] | IC50 [2] [µM] | Helicity (α-helicity by CD) [3] [%] | time for complete degradation in bovine serum [4] [h]
4 | CC(=O)N[C@H](C(=O)N[C@@H](CO)C(=O)N[C@@H](Cc1ccccc1)C(=O)N[C@H]1CCCCNC(=O)CCCC/C(=C\Cl)SSC[C@@H](C(=O)N[C@@H](CC(C)C)C(=O)N[C@@H](CC(C)C)C(=O)N[C@@H](CO)C(=O)N[C@@H](CCCNC(=N)N)C(N)=O)NC(=O)[C@H](Cc2c[nH]c3ccccc23)NC(=O)[C@H](Cc2ccc(O)cc2)NC(=O)[C@H](CCC(N)=O)NC1=O)[C@@H](C)O [Peptide 5o] | 43 | 8.55 |  | 
5 | CC(=O)N[C@H](C(=O)N[C@@H](CO)C(=O)N[C@@H](Cc1ccccc1)C(=O)N[C@H]1CCCCNC(=O)CCC/C(=C\Cl)SSC[C@@H](C(=O)N[C@@H](CC(C)C)C(=O)N[C@@H](CC(C)C)C(=O)N[C@@H](CO)C(=O)N[C@@H](CCCNC(=N)N)C(N)=O)NC(=O)[C@H](Cc2c[nH]c3ccccc23)NC(=O)[C@H](Cc2ccc(O)cc2)NC(=O)[C@H](CCC(N)=O)NC1=O)[C@@H](C)O [Peptide 5l] |  | 14.7 | 81.4 | 
6 | Ac-QSQQTFCNLWRLLKQN-NH2 (also: sidechain bridge or staple (positions not given here)) [Peptide 5v, QN-16 stapled with reagent 3d] |  |  | 60.8 | 
7 | Ac-CPIMEDRKP-NH2 [CP-9] |  |  |  | ≤ 5
